Laboratory results: patent US8150136B2, “Image based quantitation of molecular translocation” (Amnis Corporation, priority 2005, dated 2012)

Tested on: NF-κB nuclear translocation in THP-1 cells
Assay: LPS-induced nuclear translocation of NF-κB in THP-1 cells, multispectral imaging flow cytometry (ImageStream), NF-κB/7-AAD Similarity
Type: cell-based, human
Description: Untreated (a) and LPS treated (b) THP-1 cells were prepared as described in FIG. 4 and imaged in flow using the ImageStream 100 platform. […] Each gated population has an associated image gallery that can be visually inspected. The image galleries here display the NF-κB image adjacent to a composite image (green NF-κB/red 7-ADD) for each object within a given population.
In order to quantitate the extent of NF-κB nuclear translocation in A-549 cells treated with TNF-α/IL-β, the degree of pixel intensity between the NF-κB and nuclear images of cell within a masked region of interest was analyzed. The NF-κB image of a cell with a high degree of translocation will look qualitatively similar to the nuclear image of that cell, resulting in a high degree of correlation between the two images. In contrast, the NF-κB image of a cell without any translocation will have little signal in the nuclear space, resulting in an inverse correlation with the nuclear image. […] Two features were calculated, the correlation coefficient (ρ) and, in this case, similarity is calculated as a logarithmic transformation of ρ, which features are represented by the following formula, respectively: ρ(X,Y)=Cov(X,Y)/(σX σY) Similarity=ln(1+ρ)/(1−ρ) As set forth herein, ρ measures the degree to which the spatial distribution of intensities over two separate images is correlated, with a range from −1 (inverse correlation) to +1 (complete correlation). Here, similarity values range from −∞ to +∞, allowing standard statistical comparisons (means and standard deviations) between groups to be made. Histogram overlays of NF-κB/7-AAD correlation and similarity allows the differentiation of untreated (green) A-549 cells from TNF-α/IL-1β treated (red) A-549 cells. As described herein, the fidelity of these classifiers can be validated by inspection of the image galleries of the cells. Mask Determination
By way of background and […], NF-κB resides predominantly in the cytoplasm in resting cells. Activating treatments (e.g., IL-1β/TNF-α or LPS) induce NF-κB translocation into the nucleus in responsive cell types. Thus, the ratio of nuclear to cytoplasmic NF-κB increases with LPS treatment. Similar to the A-549 cells, NF-κB is translocated from the cytoplasm to the nucleus when the non-adherent human monocyte cell line, THP-1, is exposed to lipopolysaccharide (LPS). […] A nuclear and NF-κB pixel signal correlation analysis CCF was used to quantitate the difference between untranslocated NF-κB and NF-κB translocated to the cell nucleus. The CCF distinguished location-specific (nuclear and cytoplasmic) quantitation of NF-κB to distinguish LPS-treated from untreated THP-1 cells. Thus, the methods of the present disclosure may also be used with non-adherent cells and cell lines.
Human monocyte cell line THP-1, obtained from ATCC (Rockville, Md.), were maintained in RPMI 1640 (Gibco, Grand Island, N.Y.) containing 5% fetal bovine serum, 1 mM sodium pyruvate (Mediatech, Herndon, Va.), 100 μM nonessential amino acids, 100 U/ml penicillin, 100 μg/ml streptomycin, and 2 mM L-glutamine (BioWhittaker, Walkersville, Md.) in 5% CO2 atmosphere at 37° C. The density of exponentially growing cells was less than 3×10^5 cells per ml at the time of all treatments. To induce NF-κB translocation into the nucleus from the cytoplasm, cells were treated for 1 hr with LPS.
The following is the experimental procedure for LPS-induced Nuclear Translocation of NF-κB in THP-1 cells. […]

Lipopolysaccharide [LPS]
NF-κB/7-AAD Similarity value (median similarity value) of translocated cells (LPS treated THP-1 cells, 'High Similarity' (translocated) gated population, untreated: 2.98 +/−0.35): 3.35 +/−0.48
NF-κB/7-AAD Similarity value of untranslocated cells (LPS treated THP-1 cells, 'Low Similarity' (untranslocated) gated population, untreated: −1.36 +/−0.84): −0.76 +/−0.64
percentage of Medium Similarity cells (LPS treated THP-1 cells, diffuse NF-κB staining pattern, untreated 3.6%): 27.6%
percentage of NF-κB-translocated cells (LPS treated THP-1 cells, untreated 0.71%): 44.6%
nuclear localization of NF-κB by CCF, treated versus untreated cells (THP-1 cells, LPS-treated vs untreated): a quantifiable difference in the nuclear localization NF-κB is demonstrated
